One experiment deals with 5XFAD mice. Kind of experiment: Morris Water Maze and probe test, 5XFAD and wild-type mice. The format is in vivo, mouse. The note with it: for memory task in age-matched wild-type control mice: systemic administration, ip three times a week for 5 weeks. How it is done: The determination of injection amount of R5 (200 µg/kg) was based on achieving equimolar concentrations as the full length peptide, cAC253[21] and prior studies that used pramlintide injections[22],[23]. The normal mouse circulated endogenous amylin level is 0.7 ± 0.4 pmol/L in plasma[32] and based upon our in vitro data (Fig. 1E) unlikely to perturb the function of peptides in vivo at these concentrations.
For in vivo studies, 5XFAD mouse breeding stocks were obtained from the Jackson Laboratory (JAX #006554). Intraperitoneal injection (ip) administration of fragment R5 and cAC253 was carried out in 5XFAD mice and wild-type littermate control mice (both male and female). These mice were equally and randomly distributed into 6 groups (n = 10 for each group), and received either normal saline (NS), cAC253 or R5 fragment (200 µg/kg) i.p. injections 3 times a week starting at 6 months of age for 5 weeks.
The Morris Water Maze (MWM) and probe test were carried out for behavioral testing. The mice were trained for 3 days (4 trials per day) to find a submerged platform (target quadrant, TQ). The trial ended when a mouse found and climbed onto the platform within 120s. Mice were tested with inter-trial interval of 50 min. Memory was evaluated in probe trial, administered on day 4 as the first trial of the day. During probe trial, the platform was removed from the pool. Memory for the platform location was expressed as the percent of time spent in TQ.
For in vivo experiments, intraperitoneal injection (ip) administration of fragment R5 and cAC253 was carried out in 6 month old transgenic 5XFAD mice and wild-type littermate control mice (both male and female) obtained from Dr. David Westaway (University of Alberta). These mice were equally and randomly distributed into 6 groups and 10 mice assigned for each group, Tg-NS, Tg-cAC253, Tg-R5, Wt-NS, Wt-cAC253, Wt-R5. Randomized double blind control experiment was carried out for the whole in vivo experiment, i.e. the individual administering ip injections was blinded to the identity of the drug, and the individual testing behavior was blind to the treatment being administered. […]
The MWM apparatus consisted of 2-m circular blue plastic pool filled with water (24–25°C), which was rendered opaque by the addition of non-toxic white paint. […] The behavior of a mouse was recorded by a video camera connected to a video tracking system (HVS Image 2100, HVS Image, Buckingham, UK).
The pool was surrounded by a white curtain, and a mouse was released facing the wall at points (N, E, S, W) which were chosen semi-randomly. […] Memory was evaluated in probe trial, administered on day 4 as the first trial of the day. […] Memory for the platform location was expressed as the percent of time spent in TQ.

The test system of experiment [1] is hippocampal LTP (CA1). Kind of experiment: Hippocampal LTP in slices from 8 month old TgCRND8 mice. The conditions noted are these: n = 6 recordings. Also on record: species or system mouse. How it is done: (§1) We examined whether the peptide fragments were capable of influencing Aβ- or hAmylin-induced reduction of hippocampal LTP in mice. Exposure of hippocampal slices from wild-type mice to hAmylin (50 nM) or Aβ (50 nM) depressed LTP induced by a weak tetanization protocol at the CA1 region as previously reported[20],[30]. To determine whether peptides affected hAmylin or Aβ- induced depression of LTP, we applied 250 nM R5 or R14 continuously for 5 min prior to exposure of the hippocampal slices to 50 nM hAmylin or Aβ and the subsequent LTP induction. […] We therefore sought to determine whether peptide fragments were also capable of improving LTP levels in the same TgCRND8 AD mouse model. […] Importantly, doses of the short peptide fragments used in these experiments were equimolar to those used for AC253 and pramlintide in our previous studies[20],[30].
For electrophysiology experiment, hippocampal slices (400-μm thick) were prepared using a vibratome from wild type and TgCRND8 mice (8 month of age, male or female). […]
Brains were quickly removed from mice following decapitation, placed in a cold artificial cerebral spinal fluid (aCSF) on a vibratome chamber, and transverse sections cut through the hippocampus. […] Before 3-TBS or drug application, the responses were monitored for at least 10 min to ensure a stable baseline of fEPSP. […]

Experiment [2] concerns hippocampal LTP (CA1). Kind of experiment: Hippocampal long-term potentiation (LTP) in slices from wild type mice. Also on record: species or system mouse. How it is done:
as §1
For electrophysiology experiment, hippocampal slices (400-μm thick) were prepared using a vibratome from wild type and TgCRND8 mice (8 month of age, male or female). For long-term potentiation (LTP) measurement, the stimulus strength was set to elicit 40–50% of the maximum fEPSP (field excitatory postsynaptic potential) amplitude and test pulses were delivered once every 30s. LTP was induced by 3-theta-burst stimulation protocol (each burst consisted of four pulses at 100 Hz with a 200-ms interburst interval). All drugs and chemicals were applied directly to the slice via bath perfusion.
Brains were quickly removed from mice following decapitation, placed in a cold artificial cerebral spinal fluid (aCSF) on a vibratome chamber, and transverse sections cut through the hippocampus. The aCSF contained (in millimolar 124 NaCl, 3 KCl, 2.4 CaCl2, 2 MgCl2, 1.25 NaH2PO4, 26 NaHCO3, and 10 D-glucose and was equilibrated with 95 % O2 and 5 % CO2. Hippocampal slices (400-μm thick) were maintained in aCSF-filled holding chamber at room temperature for at least 1 h and individually transferred to the submerged glass bottom recording chamber, which was constantly perfused with aCSF (2 ml/min) at 30 °C. Field excitatory postsynaptic potential (fEPSP) was recorded with a metallic (Pt/Ir) electrode (FHC, Bowdoin, ME) from the stratum radiatum layer of Cornu ammonis 1 region of the hippocampus (CA1) area, and the Schaffer collateral afferents were stimulated with 100-μs test pulses via a bipolar cluster electrode (FHC). For long-term potentiation (LTP) experiments, the stimulus strength was set to elicit 40–50 % of the maximum fEPSP amplitude and test pulses were delivered to Schaffer collaterals once every 30 s. […] Before 3-TBS or drug application, the responses were monitored for at least 10 min to ensure a stable baseline of fEPSP. […]

No end group written: not given here.

On to “LGRLSQELHRLQTYPRTNTGSNTY-NH2 (C-terminus assumed) [AC253, reference compound]”, for which the “memory task in age-matched wild-type control mice” value in the experiment on 5XFAD mice is on record as “no alterations in the memory task”.

As for SQELHRLQTYPR-NH2 [R5], in the experiment with hippocampal LTP (CA1) [1], the “effect on chronically depressed LTP in TgCRND8 slices” value was “significant increase in LTP”. For the same substance, in the experiment with hippocampal LTP (CA1) [2] (wild type mouse slices, 250 nM), the “effect of peptide alone on hippocampal LTP” value was “did not impair LTP”. Besides, the “effect on Aβ-induced depression of hippocampal LTP” value in the experiment on hippocampal LTP (CA1) [2] (wild-type mouse slices, peptide 250 nM for 5 min before Aβ1–42 50 nM, n = 6 recordings) is given as “reversed”. Further, the “effect on hAmylin-induced depression of hippocampal LTP” value with hippocampal LTP (CA1) [2] (wild-type mouse slices, peptide 250 nM for 5 min before hAmylin 50 nM, n = 6 recordings) is on record as “reversed”. Moreover, the “Morris Water Maze escape latencies, 5XFAD mice versus normal saline” value in the experiment on 5XFAD mice (200 µg/kg ip three times a week for 5 weeks from 6 months of age, n = 9 mice per group) is on record as “marked improvement in escape latencies”. The “Probe trial, quadrant preference, 5XFAD mice” value in the experiment with 5XFAD mice (200 µg/kg ip three times a week for 5 weeks, n = 9) is “preference for the target quadrant”. Moreover, the “memory task in age-matched wild-type control mice” value in the experiment with 5XFAD mice is “no alterations in the memory task”.

The values are drawn from paper PMC6662706, “Short amylin receptor antagonist peptides improve memory deficits in Alzheimer’s disease mouse model” (Scientific Reports, 2019).
